# Experimental data published in PubChem BioAssay AID463199 (Broad Institute, 2010).
# The source made the active and inactive calls.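 Rule for the calls: active = AC50, the dose giving half-maximal effect, exceeds a fixed cutoff for a compound that rescues yeast growth under heat; inactive = the rest, inconclusive results apart.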
# System: S. cerevisiae Burl-1 ts mutant growth, BacTiter-Glo, 38.5C 24 h
# Experiment: growth induction of Burl-1 ts yeast mutant, dose response, counter-screen for SUMOylation pathway inhibitor project, whole organism, S. cerevisiae, luminescence (AID 463199)
row,SMILES,AC50
1,COc1ccc(-c2cc(=O)c3cc(O)ccc3o2)cc1,> 42 µM (inactive)
2,CN(c1ccccc1)S(=O)(=O)c1ccc(C(=O)NCC2CCCO2)cc1 (stereo not given),> 21 µM (inactive)
3,Cc1nc(C)n(CC(=O)N2CCCC(C(=O)c3cccc4ccccc34)C2)n1 (stereo not given),> 42 µM (inactive)
4,Clc1ccc(CNCc2cccs2)cc1Cl,> 42 µM (inactive)
5,CCN1C(=O)N(c2ccc(Cl)cc2)C(C)=CC1(C)C,> 42 µM (inactive)
6,CCS(=O)c1ccccc1C(=O)O (stereo not given),> 42 µM (inactive)
7,COc1ccc(C)cc1NC(=O)C12CCC(C)(C(=O)O1)C2(C)C (stereo not given),> 42 µM (inactive)
8,Cc1ccc(NC(=O)CSCC(=O)Nc2ccccc2N2CCCC2)cc1,> 42 µM (inactive)
9,O=C(COc1cccc2cccnc12)N1CCc2ccccc21,> 42 µM (inactive)
10,COc1ccc(CCC(=O)NNC(=S)Nc2cccc(C(C)=O)c2)cc1,> 42 µM (inactive)
11,Clc1cnc(Oc2ccc(Oc3ncc(Cl)cc3Cl)cc2)c(Cl)c1,> 42 µM (inactive)
12,CCOc1ccccc1CN1CCN(Cc2ccon2)CC1CCO (stereo not given),> 42 µM (inactive)
13,O=C1CC(c2ccccc2)c2ccc(O)cc2O1 (stereo not given),> 42 µM (inactive)
14,CCOC(=O)C1CCN(Cc2ccc(OCc3ccccc3)cc2)CC1,> 42 µM (inactive)
15,COc1cccc(/C=C/C(=O)OCC(=O)Nc2ccc(Cl)cn2)c1,> 42 µM (inactive)
16,Cc1ccc(C(=O)NCCCNC(=O)c2ccc(C)nc2)cc1,> 42 µM (inactive)
17,CC(NC(=O)C1CCCCC1)C(=O)NC1=NCCS1 (stereo not given),> 42 µM (inactive)
18,O=C(N/N=C/c1ccc(Cl)s1)c1ccccc1[N+](=O)[O-],> 42 µM (inactive)
19,COc1ccc2c(c1)[C@H]1[C@H](CO2)[C@H](c2ccccc2)[C@]2(C)C(=O)Nc3cc(C)ccc3C(=O)N12,> 42 µM (inactive)
20,Cc1n[nH]c(=O)c2c(NC(=O)COC(=O)Cc3ccc(Cl)cc3Cl)oc(C)c12,> 21 µM (inactive)
21,COc1cc(C)c(Cl)c(C)c1S(=O)(=O)NCc1ccc2c(c1)OCO2,> 42 µM (inactive)
22,Cc1ccc(C)c(N2CCN(C(c3ccncc3)c3nnnn3Cc3ccccc3)CC2)c1 (stereo not given),32.8 µM
23,Nc1nc(CSc2nnnn2-c2ccc(Cl)cc2)nc(N2CCOCC2)n1,> 42 µM (inactive)
24,Nc1cc[n+](CC(=O)Nc2ccccc2)cc1,> 42 µM (inactive)
25,Cn1cccc1CC(=O)N/N=C/c1cccc([N+](=O)[O-])c1,> 42 µM (inactive)

row,SMILES,AC50
1,C=CCNC(=O)NC(=O)COC(=O)CCCSc1nc2ccccc2[nH]1,> 42 µM (inactive)
2,O=C(Nc1cccc(O)c1)C(Cc1ccccc1)N1C(=O)c2cccc3cccc(c23)C1=O (stereo not given),> 42 µM (inactive)
3,CCOC(=O)N1CCN(C(=O)CNC(=O)c2nn(-c3ccc(OC)c(OC)c3)c(=O)c3ccccc23)CC1,> 42 µM (inactive)
4,O=C(Oc1ccccc1N1C(=O)C2CC=CCC2C1=O)c1ccc(Br)cc1 (stereo not given),> 42 µM (inactive)
5,CC(=O)c1ccc(Nc2cc(C)nc3ccccc23)cc1,> 42 µM (inactive)
6,COc1ccc(OCC(=O)O/N=C(\N)Cc2ccc(Cl)cc2)cc1,> 42 µM (inactive)
7,O=C(C[n+]1ccc(C(=O)N/N=C/c2ccc(Cl)cc2Cl)cc1)c1ccccc1,> 42 µM (inactive)
8,Cc1cc(C)cc(N(CC(=O)Nc2cccc(C)n2)S(=O)(=O)c2c(C)noc2C)c1,> 42 µM (inactive)
9,O=C(O)COc1ccc(=O)n(-c2ccccc2)n1,> 42 µM (inactive)
10,CC1(C)CC(=O)c2cnc(NC(=O)CSc3nc4ccccc4o3)nc2C1,> 42 µM (inactive)
11,COc1ccccc1C(=O)OCC(=O)NC(=O)NCc1ccccc1,> 42 µM (inactive)
12,CCOc1ccc(S(=O)(=O)N2CCN(C(=O)CN3C(=O)NC4(CCCC4)C3=O)CC2)cc1,> 42 µM (inactive)
13,CCNC(=O)/C(C#N)=C/c1c(N2CCCCCC2)nc2ccccn2c1=O,> 42 µM (inactive)
14,O=C1CN(C(=O)COC(=O)CCNS(=O)(=O)c2ccc(Cl)cc2)c2ccccc2N1,> 42 µM (inactive)
15,O=S(=O)(c1ccc(C2CCCCC2)cc1)N1CCCC1,> 42 µM (inactive)
16,Cc1ccc(S(=O)(=O)Oc2ccccc2N2C(=O)C3CC=CCC3C2=O)cc1 (stereo not given),> 42 µM (inactive)
17,CC(=O)N1CCC2(CC1)CC(=O)c1cc(OCC(=O)N3CCCC3)ccc1O2,> 42 µM (inactive)
18,COC(=O)c1cc(Cl)c(NC(=O)C(C)C)cc1OC,> 42 µM (inactive)
19,CCCCN(C)C(=O)CCC(=O)Nc1ccc2nc(N3CCN(C)CC3)cc(C)c2c1,> 42 µM (inactive)
20,CCn1nccc1C(=O)Nc1ccccc1OC,> 42 µM (inactive)
21,Cc1nc(NCCN2CCOCC2)c2nnn(Cc3c(F)cccc3Cl)c2n1,> 42 µM (inactive)
22,O=C1C2C(c3ccccc3)CC=CC2[C@H](c2ccc3ccccc3c2)N1Cc1ccccc1 (stereo not given in full),> 42 µM (inactive)
23,CC(=O)c1cccc(NC(=O)CN(c2cccc(F)c2)S(C)(=O)=O)c1,> 42 µM (inactive)
24,O=C(CSc1ncn[nH]1)Nc1cccc(S(=O)(=O)N2CCCCCC2)c1,> 42 µM (inactive)
25,O=C(OCCCN=C1NS(=O)(=O)c2ccccc21)c1cccs1,> 42 µM (inactive)
